Data on two compounds can be found in publication PMC5803267, “A small molecule inhibitor of Rheb selectively targets mTORC1 signaling” (Nature Communications, 2018).

In assay [1] the target is T1, Rheb-dependent mTORC1 kinase activity (Homo sapiens, UniProt Q15382).
T1 construct: using full-length Rheb and mTORC1 purified from mammalian cells via a Flag-Raptor handle; made in house; host or cells: HA-GST-Rheb: Freestyle 293-F cells transfected with pRK5-HA-GST-Rheb; mTORC1: HEK-293E cells stably expressing FLAG-Raptor
T1 sequence (Q15382 1-181 limits assumed): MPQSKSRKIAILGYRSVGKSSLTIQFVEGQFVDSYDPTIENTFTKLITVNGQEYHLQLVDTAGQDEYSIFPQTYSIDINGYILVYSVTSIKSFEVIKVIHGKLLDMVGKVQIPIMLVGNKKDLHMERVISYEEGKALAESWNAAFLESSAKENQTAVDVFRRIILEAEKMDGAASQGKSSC
As to the kind of experiment: Rheb-dependent mTORC1 in vitro kinase assay (Rheb-IVK). Type of assay: biochemical. The conditions noted are these: for inhibition of mTORC1 activity in the Rheb-IVK: result in words.

Assay [2] concerns T389pS6K1 (mTORC1) in PC3 cells. Nature of the assay: Chronic treatment of PC3 cells, T389pS6K1 Western blot. Format: cell-based, human. The conditions noted are these: PC3, replete, 24 h; NR1 30 µM, rapamycin 100 nM. Here is the method:
(§1) MCF-7 cells were serum-starved for 16 h and treated with compound for 90 min before cell lysis and Western blot analysis. For insulin-stimulated cells, 100 nM insulin was added 30 min before cell lysis. For EGF-stimulated cells, 100 ng mL^−1 EGF was added 10 min before cell lysis. c Rap1 activity was detected in lysates loaded in vitro with either GDP or GTPγS and treated with NR1 at the indicated concentrations. This was followed by a subsequent pulldown of GST-RalGDS-RBD. Bound Rap1 was detected by Western blot. d Evaluation of NR1 in a LAM patient-derived cell line (TRI102) under replete and serum-starved conditions. For replete conditions, TRI102 cells were treated for 90 min with compound in DMEM + 10% FBS. For serum-starved conditions, TRI102 cells were serum-starved 16 h and then treated for 90 min with compound prior to cell lysis and Western blot analysis. e HEK293 cells co-transfected with the indicated mTOR constructs and HA-GST-S6K1 were starved of amino acids or treated with NR1. To assess mTORC1 activity, an HA IP was performed and Western blots probed for ^T389pS6K1. f Chronic treatment of PC3 cells with NR1 to evaluate the inhibition of mTORC1 (using ^T389pS6K1) versus mTORC2 (using ^S473pAKT). PC3 cells were treated with compound under replete conditions for 24 h prior to cell lysis and Western blot analysis.
(§2) Accordingly, a hallmark of a selective mTORC1 inhibitor such as NR1 would be the lack of mTORC2 inhibition irrespective of the duration of treatment. PC3 cells are sensitive to mTORC2 inhibition with long-term rapamycin treatment. Indeed, upon treatment with rapamycin for 24 h, both ^T389pS6K1 and ^S473pAKT were lowered, indicating inhibitory effects on both mTORC1 and mTORC2, respectively.
(§3) For Western-based signaling assays, cells were treated for either 90 min or 2–24 h as indicated before lysis, normalization, and Western analysis. Cells were lysed in Triton lysis buffer: 1% Triton X-100, 50 mM HEPES pH 7.4, 100 mM NaCl, 2 mM EDTA, 10 mM β-glycerophosphate, 10 mM Na-pyrophosphate, protease inhibitor.
A general note: A western blot detects proteins with antibodies after separation by electrophoresis.

In assay [3] the test system is S473pAKT (mTORC2) in PC3 cells. As to the kind of experiment: Chronic treatment of PC3 cells, S473pAKT Western blot. Format: cell-based, human. The note with it: PC3, replete, 24 h; NR1 30 µM, rapamycin 100 nM. The method, then: as §1, §2, §3

In the case of `CCC(=O)N1CCN(c2ccc(-n3c(=O)ccc4cnc5ccc(-c6cnc7ccccc7c6)cc5c43)cc2C(F)(F)F)CC1` [Torin-1], the IC50 in assay [1] (LanthaScreen TR-FRET format, T46p4E-BP1 antibody, read-out: IC50 in the Rheb-IVK) amounted to 2 nM. In addition, the “inhibition of mTORC1 activity in the Rheb-IVK” value in assay [1] is recorded as “inhibited mTORC1 activity”.

For the compound `CO[C@H]1C[C@@H]2CC[C@@H](C)[C@@](O)(O2)C(=O)C(=O)N2CCCC[C@H]2C(=O)O[C@H]([C@H](C)C[C@@H]2CC[C@@H](O)[C@H](OC)C2)CC(=O)[C@H](C)/C=C(\C)[C@@H](O)[C@@H](OC)C(=O)[C@H](C)C[C@H](C)/C=C/C=C/C=C/1C` [rapamycin, reference compound], the “T389pS6K1 after 24 h treatment” value in assay [2] is listed as “lowered”. For the same compound, in assay [1], the “inhibition of mTORC1 activity in the Rheb-IVK” value is listed as “no inhibition”. Also, in assay [3], the “S473pAKT after 24 h treatment” value was “lowered”.

As a reminder, the IC50 is the concentration needed to halve the response being measured.
